Test results reported in the supplement of paper PMC4858399.

Assays:
Conditions in all cases: exposure time 48 h
[1] = system: Caenorhabditis elegans N2; test: lowest effective concentration for larval growth inhibition (size below effect threshold); higher = less potent
How it was run: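 Each well of a 96-well plate received 50 C. elegans N2 L1 larvae, which grew for 48 h at 20°C in K-medium containing killed bacteria, 1% DMSO and the chemical at 0.5, 1, 5, 10, 50, 100 or 200 µM. A Biosort recorded the extinction of every worm as its size, and these readings were log-transformed and averaged per well. The lowest effective concentration is defined as the first dose at which the plate-adjusted mean size falls below the threshold and stays below it at all higher doses; that threshold is 5.665.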

[2] = system: Caenorhabditis elegans N2; test: mean nematode size ln(EXT) after 48 h, plate-adjusted (DMSO control set to 6) (ln(EXT), control-adjusted); higher = larger nematodes / less growth inhibition
How it was run: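 Synchronised C. elegans N2 L1 larvae (50 per well, 4–6 wells per treatment) were grown for 48 h at 20°C in K-medium with killed OP50, 1% DMSO and 0.5–200 µM chemical. The Biosort measured each worm's extinction, and debris was removed by a growth model. Values were natural-logged and averaged per well. Mean size was then plate-adjusted by subtracting the vehicle control mean and adding 6.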

[3] = system: Caenorhabditis elegans N2; test: AC50 for larval growth inhibition (Hill fit); higher = less potent
How it was run: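 After 48 h at 20°C in K-medium with killed OP50, 1% DMSO and 0.5–200 µM chemical, synchronised C. elegans N2 L1 larvae (50 per well, 96-well plates) were sized individually as extinction on a COPAS Biosort. These values were log-transformed and averaged per well, and wells with fewer than 10 worms were excluded. The AC50 was derived from a constrained Hill fit by weighted genetic-algorithm regression, and out-of-range values are censored.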

CCOP(=O)(NC(C)C)Oc1ccc(SC)c(C)c1 (centres undefined) [Fenamiphos]
lowest effective concentration [1]: ≤ 0.5 µM | mean nematode size ln(EXT) (ln) ([2]; 0.5 µM): 5.54 | mean nematode size ln(EXT) (ln) ([2]; 1 µM): 5.56 | mean nematode size ln(EXT) (ln) ([2]; 5 µM): 5.32 | mean nematode size ln(EXT) (ln) ([2]; 10 µM): 5.31 | mean nematode size ln(EXT) (ln) ([2]; 50 µM): 4.93 | mean nematode size ln(EXT) (ln) ([2]; 100 µM): 4.49 | mean nematode size ln(EXT) (ln) ([2]; 200 µM): 4.15 | AC50 for larval growth inhibition [3]: 90.9 µM

CC(C)COC(=O)c1ccccc1C(=O)OCC(C)C [Diisobutyl phthalate]
lowest effective concentration [1]: 100 µM | mean nematode size ln(EXT) (ln) ([2]; 0.5 µM): 5.93 | mean nematode size ln(EXT) (ln) ([2]; 1 µM): 5.94 | mean nematode size ln(EXT) (ln) ([2]; 5 µM): 5.9 | mean nematode size ln(EXT) (ln) ([2]; 10 µM): 5.95 | mean nematode size ln(EXT) (ln) ([2]; 50 µM): 6.12 | mean nematode size ln(EXT) (ln) ([2]; 100 µM): 5.58 | mean nematode size ln(EXT) (ln) ([2]; 200 µM): 5.43 | AC50 for larval growth inhibition [3]: 96.3 µM

CCC(C)c1cc([N+](=O)[O-])cc([N+](=O)[O-])c1O (centres undefined) [Dinoseb]
lowest effective concentration [1]: 100 µM | mean nematode size ln(EXT) (ln) ([2]; 0.5 µM): 6.02 | mean nematode size ln(EXT) (ln) ([2]; 1 µM): 5.96 | mean nematode size ln(EXT) (ln) ([2]; 5 µM): 5.94 | mean nematode size ln(EXT) (ln) ([2]; 10 µM): 5.91 | mean nematode size ln(EXT) (ln) ([2]; 50 µM): 5.82 | mean nematode size ln(EXT) (ln) ([2]; 100 µM): 5.56 | mean nematode size ln(EXT) (ln) ([2]; 200 µM): 5.04 | AC50 for larval growth inhibition [3]: > 200 µM

CC[C@H](C)C1O[C@]2(C=C[C@@H]1C)C[C@@H]1C[C@@H](C/C=C(\C)[C@@H](O[C@H]3C[C@H](OC)[C@@H](O[C@H]4C[C@H](OC)[C@H](NC)[C@H](C)O4)[C@H](C)O3)[C@@H](C)/C=C/C=C3\CO[C@@H]4[C@H](O)C(C)=C[C@@H](C(=O)O1)[C@]34O)O2 (some centres undefined) [Emamectin benzoate]
lowest effective concentration [1]: ≤ 0.5 µM | mean nematode size ln(EXT) (ln) ([2]; 0.5 µM): 3.52 | mean nematode size ln(EXT) (ln) ([2]; 1 µM): 3.7 | mean nematode size ln(EXT) (ln) ([2]; 5 µM): 3.74 | mean nematode size ln(EXT) (ln) ([2]; 10 µM): 3.6 | mean nematode size ln(EXT) (ln) ([2]; 50 µM): 3.65 | mean nematode size ln(EXT) (ln) ([2]; 100 µM): 3.54 | mean nematode size ln(EXT) (ln) ([2]; 200 µM): 4.24 | AC50 for larval growth inhibition [3]: < 0.5 µM

ClC1=C(Cl)[C@]2(Cl)[C@@H]3[C@@H](Cl)[C@H]4O[C@H]4[C@@H]3[C@@]1(Cl)C2(Cl)Cl (single isomer, unassigned; isomer b) [Heptachlor epoxide, isomer B]
lowest effective concentration [1]: 5 µM | mean nematode size ln(EXT) (ln) ([2]; 0.5 µM): 5.72 | mean nematode size ln(EXT) (ln) ([2]; 1 µM): 5.69 | mean nematode size ln(EXT) (ln) ([2]; 5 µM): 5.48 | mean nematode size ln(EXT) (ln) ([2]; 10 µM): 5.44 | mean nematode size ln(EXT) (ln) ([2]; 50 µM): 5.2 | mean nematode size ln(EXT) (ln) ([2]; 100 µM): 5.14 | mean nematode size ln(EXT) (ln) ([2]; 200 µM): 5.11 | AC50 for larval growth inhibition [3]: 7.71 µM

CC(C)CCCCCCCOC(=O)c1ccccc1C(=O)OCCCCCCCC(C)C [Diisodecyl phthalate]
lowest effective concentration [1]: 200 µM | mean nematode size ln(EXT) (ln) ([2]; 0.5 µM): 5.44 | mean nematode size ln(EXT) (ln) ([2]; 1 µM): 5.55 | mean nematode size ln(EXT) (ln) ([2]; 5 µM): 5.58 | mean nematode size ln(EXT) (ln) ([2]; 10 µM): 5.72 | mean nematode size ln(EXT) (ln) ([2]; 50 µM): 5.68 | mean nematode size ln(EXT) (ln) ([2]; 100 µM): 5.67 | mean nematode size ln(EXT) (ln) ([2]; 200 µM): 5.66 | AC50 for larval growth inhibition [3]: > 200 µM

CC(C)(c1ccccc1)c1ccc(O)cc1 [4-Cumylphenol]
lowest effective concentration [1]: 100 µM | mean nematode size ln(EXT) (ln) ([2]; 0.5 µM): 6.04 | mean nematode size ln(EXT) (ln) ([2]; 1 µM): 5.96 | mean nematode size ln(EXT) (ln) ([2]; 5 µM): 5.97 | mean nematode size ln(EXT) (ln) ([2]; 10 µM): 5.84 | mean nematode size ln(EXT) (ln) ([2]; 50 µM): 5.92 | mean nematode size ln(EXT) (ln) ([2]; 100 µM): 5.3 | mean nematode size ln(EXT) (ln) ([2]; 200 µM): 4.34 | AC50 for larval growth inhibition [3]: 110 µM

CO/C=C(/C(=O)OC)c1ccccc1COc1cccc(C(F)(F)F)n1 [Picoxystrobin]
lowest effective concentration [1]: 50 µM | mean nematode size ln(EXT) (ln) ([2]; 0.5 µM): 5.95 | mean nematode size ln(EXT) (ln) ([2]; 1 µM): 5.83 | mean nematode size ln(EXT) (ln) ([2]; 5 µM): 5.92 | mean nematode size ln(EXT) (ln) ([2]; 10 µM): 5.89 | mean nematode size ln(EXT) (ln) ([2]; 50 µM): 4.97 | mean nematode size ln(EXT) (ln) ([2]; 100 µM): 4.26 | mean nematode size ln(EXT) (ln) ([2]; 200 µM): 4.61 | AC50 for larval growth inhibition [3]: 48.6 µM

OC(c1ccc(Cl)cc1)(c1cncnc1)c1ccccc1Cl (centres undefined) [Fenarimol]
lowest effective concentration [1]: 50 µM | mean nematode size ln(EXT) (ln) ([2]; 0.5 µM): 6.14 | mean nematode size ln(EXT) (ln) ([2]; 1 µM): 6.17 | mean nematode size ln(EXT) (ln) ([2]; 5 µM): 6.07 | mean nematode size ln(EXT) (ln) ([2]; 10 µM): 5.92 | mean nematode size ln(EXT) (ln) ([2]; 50 µM): 5.21 | mean nematode size ln(EXT) (ln) ([2]; 100 µM): 3.58 | mean nematode size ln(EXT) (ln) ([2]; 200 µM): 3.32 | AC50 for larval growth inhibition [3]: 59.8 µM

O=C1CN(/N=C/c2ccc([N+](=O)[O-])o2)C(=O)N1 [Nitrofurantoin]
lowest effective concentration [1]: 200 µM | mean nematode size ln(EXT) (ln) ([2]; 0.5 µM): 5.9 | mean nematode size ln(EXT) (ln) ([2]; 1 µM): 5.88 | mean nematode size ln(EXT) (ln) ([2]; 5 µM): 5.88 | mean nematode size ln(EXT) (ln) ([2]; 10 µM): 5.88 | mean nematode size ln(EXT) (ln) ([2]; 50 µM): 5.81 | mean nematode size ln(EXT) (ln) ([2]; 100 µM): 5.84 | mean nematode size ln(EXT) (ln) ([2]; 200 µM): 5.46 | AC50 for larval growth inhibition [3]: > 200 µM

C1CCC(SSC2CCCCC2)CC1 [Dicyclohexyl disulfide]
lowest effective concentration [1]: 50 µM | mean nematode size ln(EXT) (ln) ([2]; 0.5 µM): 5.76 | mean nematode size ln(EXT) (ln) ([2]; 1 µM): 5.82 | mean nematode size ln(EXT) (ln) ([2]; 5 µM): 5.78 | mean nematode size ln(EXT) (ln) ([2]; 10 µM): 5.74 | mean nematode size ln(EXT) (ln) ([2]; 50 µM): 5.65 | mean nematode size ln(EXT) (ln) ([2]; 100 µM): 5.62 | mean nematode size ln(EXT) (ln) ([2]; 200 µM): 5.44 | AC50 for larval growth inhibition [3]: > 200 µM
